Source: patent US11299715B2, “Use of iNOS inhibitors to increase viral yield in culture” (priority 2013, dated 2022)

System: d27-1/GFP HSV-1
Test: Effect of valproic acid pretreatment on d27-1/GFP HSV-1 viral titer in V27 cells
Format: cell-based
Method: Valproic acid (Sigma-P4543) was dissolved to 1 M concentration in water. V27 cells were seeded into six well plates the day prior to infection at 6×10^5 cells/well. […] This was vortexed well and added to the wells. Plates were incubated for six hours, aspirated and infectious HSV-1 d27-1 stock added at MOI 0.15 (=cell seed density×0.15/pfu titer of HSV stock) per 1 ml of DMEM (no additives).
1 ml of infectious inoculum was added per well and incubated for 1-2 hours at 37° C., 5% CO2 incubator after which time 1.5 ml of DMEM-10% FBS was added. The plates were returned to the incubator for 70-74 hours. Free media was harvested, vortexed, and centrifuged at 1,100×g for 10 minutes at 4° C. Supernatant was transferred to a new dispensing tube, vortexed, and aliquoted. Stocks were frozen at −80° C.
V27 cells were seeded into six well plates the day prior to infection at 6×10^5 cells/well and the next day, different concentrations of VA were added to wells. Plates were incubated for 6 hrs, aspirated and ⅖ vol of media containing infectious HSV-1 d27-1 stock was added and incubated for 1-2 hours at 37° C., […] after which time ⅗ vol of DMEM 10% FBS media was added. The cultures were returned to the incubator and supernatant was harvested after 70-74 hours.

For `CCCC(CCC)C(=O)O` [VA, valproic acid], the “titer of d27-1/GFP HSV-1 compared to untreated control” value (VA 5 mM, 6 hrs pretreatment) was “slightly elevated” and the “titer of d27-1/GFP HSV-1 compared to untreated control” value (VA concentrations below and above 5 mM, pretreatment) was “inhibitory effect”.
